Here are results for 36 compounds from patent US8802674B2, “Aminopyrimidine derivatives as LRRK2 modulators” (Genentech, Inc., priority 2011, dated 2014).

For orientation: Ki means a dissociation constant, usually derived from enzyme kinetics or from competition with a known ligand. Lower therefore signals tighter binding.

Sequence of LRRK2 (Q5S007 970-2527 G2019S limits assumed): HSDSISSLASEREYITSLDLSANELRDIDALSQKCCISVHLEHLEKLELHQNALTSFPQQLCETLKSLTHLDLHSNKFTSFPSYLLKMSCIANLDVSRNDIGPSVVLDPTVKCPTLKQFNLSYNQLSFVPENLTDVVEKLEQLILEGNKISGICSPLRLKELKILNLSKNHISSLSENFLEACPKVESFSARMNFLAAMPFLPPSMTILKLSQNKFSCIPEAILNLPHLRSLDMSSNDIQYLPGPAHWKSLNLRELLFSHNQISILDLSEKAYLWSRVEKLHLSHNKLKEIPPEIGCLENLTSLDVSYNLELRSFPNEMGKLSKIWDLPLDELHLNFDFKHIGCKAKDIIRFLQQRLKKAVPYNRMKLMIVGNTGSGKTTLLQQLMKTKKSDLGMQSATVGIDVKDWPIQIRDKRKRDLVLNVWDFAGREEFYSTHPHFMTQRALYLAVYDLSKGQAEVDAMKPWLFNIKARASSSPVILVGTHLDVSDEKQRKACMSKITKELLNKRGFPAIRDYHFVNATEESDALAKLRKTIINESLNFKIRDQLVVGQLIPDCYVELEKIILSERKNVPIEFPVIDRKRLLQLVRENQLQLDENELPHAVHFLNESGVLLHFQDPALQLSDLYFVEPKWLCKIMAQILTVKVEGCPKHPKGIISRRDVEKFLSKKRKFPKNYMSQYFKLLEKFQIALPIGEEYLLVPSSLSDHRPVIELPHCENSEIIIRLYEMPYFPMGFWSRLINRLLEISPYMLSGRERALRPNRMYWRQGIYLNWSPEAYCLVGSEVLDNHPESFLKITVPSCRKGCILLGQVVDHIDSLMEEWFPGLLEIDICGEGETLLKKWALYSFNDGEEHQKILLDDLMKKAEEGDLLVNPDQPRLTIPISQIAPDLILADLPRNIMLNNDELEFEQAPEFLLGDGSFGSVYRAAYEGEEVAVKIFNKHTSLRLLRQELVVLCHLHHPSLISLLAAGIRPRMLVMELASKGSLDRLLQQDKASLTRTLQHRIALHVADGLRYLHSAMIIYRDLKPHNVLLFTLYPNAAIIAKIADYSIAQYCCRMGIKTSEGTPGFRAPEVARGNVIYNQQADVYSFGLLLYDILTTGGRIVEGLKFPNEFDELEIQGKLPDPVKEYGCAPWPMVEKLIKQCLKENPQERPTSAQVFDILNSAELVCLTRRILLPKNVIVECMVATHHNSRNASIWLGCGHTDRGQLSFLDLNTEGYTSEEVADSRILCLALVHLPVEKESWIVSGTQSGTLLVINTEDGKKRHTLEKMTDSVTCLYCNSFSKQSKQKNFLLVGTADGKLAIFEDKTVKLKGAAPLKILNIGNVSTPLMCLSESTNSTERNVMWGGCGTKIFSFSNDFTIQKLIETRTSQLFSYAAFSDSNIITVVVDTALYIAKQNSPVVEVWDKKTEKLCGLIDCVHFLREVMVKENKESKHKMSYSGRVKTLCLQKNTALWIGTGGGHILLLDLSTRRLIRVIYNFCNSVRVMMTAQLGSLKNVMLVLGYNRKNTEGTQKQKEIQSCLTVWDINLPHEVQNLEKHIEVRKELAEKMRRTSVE

The first assay has as its target LRRK2 (Homo sapiens (Human), UniProt Q5S007, G2019S). Nature of the assay: In Vitro LRRK2 LabChip Assay. Conditions: Table 4. The class given is biochemical. The method in brief:
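Potency (Ki in μM, IC50 or % inhibition) derived from capillary-electrophoresis separation of phospho- and unphosphorylated fluorescent peptide, with Ki fitted by a tight-binding model.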
`CNc1nc(Nc2ccc(C(=O)N3CC4(COC4)C3)cc2OC)ncc1Cl` [Example 190, [4-(5-Chloro-4-methylamino-pyrimidin-2-ylamino)-3-methoxy-phenyl]-(2-oxa-6-aza-spiro[3.3]hept-6-yl)-methanone] displayed an inhibitory constant (Ki) of 6.3 nM.
As for `CNc1nc(Nc2ccc(C(=O)N3CCCCC3)cc2OC)ncc1Cl` [Example 15, [4-(5-Chloro-4-methylamino-pyrimidin-2-ylamino)-3-methoxy-phenyl]-piperidin-1-yl-methanone], the Ki stood at 2.5 nM.
For the compound `CNc1nc(Nc2ccc(C(=O)N3CCOCC3)cc2OC(F)(F)F)ncc1C(F)(F)F` [Example 235, (4-(4-(methylamino)-5-(trifluoromethyl)pyrimidin-2-ylamino)-3-(trifluoromethoxy)phenyl)(morpholino) methanone], the affinity corresponds to a Ki of 11.2 nM.
On the same count and under the same terms, next, `CCOc1cc(C(=O)N2CCOCC2)ccc1Nc1ncc(Cl)c(NC)n1` [Example 49, [4-(5-Chloro-4-methylamino-pyrimidin-2-ylamino)-3-ethoxy-phenyl]-morpholin-4-yl-methanone]: 4.3 nM.
Consider `CNc1nc(Nc2ccc(C(=O)N3CCOCC3)cc2OC)ncc1C1CC1` [Example 103, [4-(5-Cyclopropyl-4-methylamino-pyrimidin-2-ylamino)-3-methoxy-phenyl]-morpholin-4-yl-methanone], for which the inhibition constant (Ki) was 89.5 nM.
`CNc1nc(Nc2cc(OC)c(C(=O)N3CC(O)C3)cc2Cl)ncc1Cl` [Example 169, [5-Chloro-4-(5-chloro-4-methylamino-pyrimidin-2-ylamino)-2-methoxy-phenyl]-(3-hydroxy-azetidin-1-yl)-methanone] displayed a Ki of 5.4 nM.
`CNc1nc(Nc2cc(OC)c(C(=O)N(C)CC(C)(C)O)cc2Cl)ncc1C(F)(F)F` [Example 181, 5-Chloro-N-(2-hydroxy-2-methyl-propyl)-2-methoxy-N-methyl-4-(4-methylamino-5-trifluoromethyl-pyrimidin-2-ylamino)-benzamide] came in with a Ki of 6.3 nM.
On the same count and under the same terms, the result for `CCNc1nc(Nc2cc(OC)c(C(=O)NC3CC3)cc2Cl)ncc1C(F)(F)F` [Example 148, 5-Chloro-N-cyclopropyl-4-(4-ethylamino-5-trifluoromethyl-pyrimidin-2-ylamino)-2-methoxy-benzamide] reads 3.5 nM; that for `COCCNc1nc(Nc2cc(F)c(C(=O)N3CCOCC3)cc2OC)ncc1Br` [Example 185, {4-[5-Bromo-4-(2-methoxy-ethylamino)-pyrimidin-2-ylamino]-2-fluoro-5-methoxy-phenyl}-morpholin-4-yl-methanone], 6.9 nM; that for `CNc1nc(Nc2ccc(C(=O)NC(C)(C)C)cc2OC)ncc1C#N` [Example 206, N-tert-Butyl-4-(5-cyano-4-methylamino-pyrimidin-2-ylamino)-3-methoxy-benzamide], 4.6 nM.
Same read-out and setting: the result for `CNc1nc(Nc2ccc(C(=O)N3CCN(C(=O)C4CC4)CC3)cc2OC)ncc1Cl` [Example 70, [4-(5-Chloro-4-methylamino-pyrimidin-2-ylamino)-3-methoxy-phenyl]-(4-cyclopropanecarbonyl-piperazin-1-yl)-methanone] reads 2.2 nM.
Same read-out and setting: the result for `COc1cc(C(=O)N2CCOCC2)ccc1Nc1ncc(Cl)c(OC)n1` [Example 61, [4-(5-Chloro-4-methoxy-pyrimidin-2-ylamino)-3-methoxy-phenyl]-morpholin-4-yl-methanone] reads 10.4 nM; that for `CNc1nc(Nc2ccc(C(=O)N3CCCCC3)cc2OC)ncc1C#N` [Example 204, 2-[2-Methoxy-4-(piperidine-1-carbonyl)-phenylamino]-4-methylamino-pyrimidine-5-carbonitrile], 3.3 nM.
`COc1cc(C(=O)N2CCOCC2)ccc1Nc1ncc(C2CC2)c(OC)n1` [Example 182, (4-(5-cyclopropyl-4-methoxypyrimidin-2-ylamino)-3-methoxyphenyl) (morpholino) methanone]: the Ki turned out to be 89.5 nM.
Same read-out and setting: the result for `COc1nc(Nc2ccc(C(=O)N3CCOCC3)cc2OC2CCC2)ncc1Br` [Example 85, [4-(5-Bromo-4-methoxy-pyrimidin-2-ylamino)-3-cyclobutoxy-phenyl]-morpholin-4-yl-methanone] reads 2.8 nM; that for `CNc1nc(Nc2ccc(C(=O)N3CCC(O)CC3)cc2OC)ncc1F` [Example 2, [4-(5-Fluoro-4-methylamino-pyrimidin-2-ylamino)-3-methoxy-phenyl]-(4-hydroxy-piperidin-1-yl)-methanone], 44.6 nM; that for `CNc1nc(Nc2cc(OC)c(C(=O)NCC(C)(C)O)cc2Cl)ncc1C(F)(F)F` [Example 175, 5-Chloro-N-(2-hydroxy-2-methyl-propyl)-2-methoxy-4-(4-methylamino-5-trifluoromethyl-pyrimidin-2-ylamino)-benzamide], 7.9 nM.
Take `CNc1nc(Nc2cc(OC)c(C(N)=O)cc2Cl)ncc1Cl` [Example 141, 5-Chloro-4-(5-chloro-4-methylamino-pyrimidin-2-ylamino)-2-methoxy-benzamide]: the affinity, expressed as Ki, was 9.3 nM.
Consider `CNC(=O)c1cc(Cl)c(Nc2ncc(Cl)c(NC)n2)cc1OC` [Example 144, 5-Chloro-4-(5-chloro-4-methylamino-pyrimidin-2-ylamino)-2-methoxy-N-methyl-benzamide], for which the Ki turned out to be 11.3 nM.
On the same count and under the same terms, the result for `CNc1nc(Nc2cc(OC)c(C(=O)NC3COC3)cc2Cl)ncc1C(F)(F)F` [Example 174, 5-Chloro-2-methoxy-4-(4-methylamino-5-trifluoromethyl-pyrimidin-2-ylamino)-N-oxetan-3-yl-benzamide] reads 4.1 nM; that for `CNc1nc(Nc2ccc(C(=O)N3CCCC(C(F)(F)F)C3)cc2OC)ncc1Cl` (stereo not drawn) [Example 26, [4-(5-Chloro-4-methylamino-pyrimidin-2-ylamino)-3-methoxy-phenyl]-(3-trifluoromethyl-piperidin-1-yl)-methanone], 2.8 nM; that for `COc1cc(C(=O)N2CCOCC2)ccc1Nc1ncc(Cl)c(N2CCCCC2)n1` [Example 254, (4-(5-chloro-4-(piperidin-1-yl)pyrimidin-2-ylamino)-3-methoxyphenyl) (morpholino) methanone], 12.1 nM.
The same measure, in the same setting: the result for `CCNc1nc(Nc2cc(F)c(C(=O)N3CCOCC3)cc2OC)ncc1Cl` [Example 87, [4-(5-Chloro-4-ethylamino-pyrimidin-2-ylamino)-2-fluoro-5-methoxy-phenyl]-morpholin-4-yl-methanone] reads 2.5 nM; that for `CNc1nc(Nc2ccc(C(=O)N3CCCC3C)cc2OC)ncc1Cl` (stereo not drawn) [Example 29, [4-(5-Chloro-4-methylamino-pyrimidin-2-ylamino)-3-methoxy-phenyl]-(2-methyl-pyrrolidin-1-yl)-methanone], 3.8 nM.

Staying with this assay, now noted: Table 5.
For the compound `CCNc1nc(Nc2cc(F)c(C(=O)N3CCOCC3)cc2OC)ncc1C(F)(F)F` [Example 256, [4-(4-Ethylamino-5-trifluoromethyl-pyrimidin-2-ylamino)-2-fluoro-5-methoxy-phenyl]-morpholin-4-yl-methanone], the affinity corresponds to a Ki of 2 nM.

The same assay, now with this note: Table 6.
With `CNc1nc(Nc2cc(OC)c(C(=O)N3CCOCC3)cc2Cl)ncc1Br` [Example 288, [4-(5-Bromo-4-methylamino-pyrimidin-2-ylamino)-5-chloro-2-methoxy-phenyl]-morpholin-4-yl-methanone], the inhibition constant Ki turned out to be 2.6 nM.
The same measure, in the same setting: next, `CNc1nc(Nc2ccc(C(=O)N3CCCC3)cc2OC)ncc1C(F)(F)F` [Example 274, [3-Methoxy-4-(4-methylamino-5-trifluoromethyl-pyrimidin-2-ylamino)-phenyl]-pyrrolidin-1-yl-methanone]: 4.1 nM.
Take `CCOc1cc(C(=O)N2CCOCC2)c(F)cc1Nc1ncc(C(F)(F)F)c(NC)n1` [Example 300, [5-Ethoxy-2-fluoro-4-(4-methylamino-5-trifluoromethyl-pyrimidin-2-ylamino)-phenyl]-morpholin-4-yl-methanone]: the Ki is 9 nM.
Still for that read-out and setting: the result for `CNc1nc(Nc2ccc(C(=O)N3CCC(N(C)C)CC3)cc2OC)ncc1C(F)(F)F` [Example 276, (4-Dimethylamino-piperidin-1-yl)-[3-methoxy-4-(4-methylamino-5-trifluoromethyl-pyrimidin-2-ylamino)-phenyl]-methanone] reads 0.8 nM; that for `CNc1nc(Nc2ccc(C(=O)NC3CCC(F)(F)CC3)cc2OC)ncc1C(F)(F)F` [Example 283, N-(4,4-Difluoro-cyclohexyl)-3-methoxy-4-(4-methylamino-5-trifluoromethyl-pyrimidin-2-ylamino)-benzamide], 1.1 nM.
On the same count and under the same terms, next, `CNc1nc(Nc2cc(OC)c(C(=O)N3CCOCC3)cc2Cl)ncc1C(F)(F)F` [Example 296, [5-Chloro-2-methoxy-4-(4-methylamino-5-trifluoromethyl-pyrimidin-2-ylamino)-phenyl]-morpholin-4-yl-methanone]: 2 nM; `CNc1nc(Nc2ccc(C(=O)N3CCC(C#N)CC3)cc2OC)ncc1C(F)(F)F` [Example 278, 1-[3-Methoxy-4-(4-methylamino-5-trifluoromethyl-pyrimidin-2-ylamino)-benzoyl]-piperidine-4-carbonitrile]: 1.7 nM; `COc1cc(C(=O)N2CCOCC2)ccc1Nc1ncc(C(F)(F)F)c(N2CCCC2)n1` [Example 268, [3-Methoxy-4-(4-pyrrolidin-1-yl-5-trifluoromethyl-pyrimidin-2-ylamino)-phenyl]-morpholin-4-yl-methanone]: 19 nM.
Still for that read-out and setting: the result for `CNc1nc(Nc2ccc(C(=O)N3CC(C)OC(C)C3)cc2OC)ncc1C(F)(F)F` (stereo not drawn) [Example 277, (2,6-Dimethyl-morpholin-4-yl)-[3-methoxy-4-(4-methylamino-5-trifluoromethyl-pyrimidin-2-ylamino)-phenyl]-methanone] reads 4.9 nM; that for `CCNc1nc(Nc2ccc(C(=O)N(C)CCOC)cc2OC)ncc1C(F)(F)F` [Example 302, 4-(4-Ethylamino-5-trifluoromethyl-pyrimidin-2-ylamino)-3-methoxy-N-(2-methoxy-ethyl)-N-methyl-benzamide], 2.3 nM.

Still in this assay, the particulars now being: Table 7.
Compound `CNc1nc(Nc2cc(F)c(C(=O)N3CCOCC3)cc2OC)ncc1C#N` [Example 317, 2-[5-Fluoro-2-methoxy-4-(morpholine-4-carbonyl)-phenylamino]-4-methylamino-pyrimidine-5-carbonitrile] displayed a Ki of 11.2 nM.
